Measurements published in the supplement of paper PMC10307832.

Experiments:
Test in all cases: relative viability (nuclei count vs DMSO), 5 days (fraction); higher = more cells survive
[1] = compound: C1=CC2=NC=CN=C2C=C1/C=C/3\C(=O)NC(=O)S3
How it was run: (§1)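 On vehicle-anchored 1536-well plates, lung cancer cell lines held overnight at 37 °C were pinned with five library-drug doses (not always all listed) spaced by √10. With no medium change over 5 days, they were then fixed, permeabilised and Hoechst-stained in one step and imaged at 4×. MetaXpress counted nuclei, and viability is the median across plates of treated-well over vehicle-well nuclei. Acceptance needed control CV below 25% and at least one doubling.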

[2] = compound: CCN1CCN(c2ccc(Nc3cc(N(C)C(=O)Nc4c(Cl)c(OC)cc(OC)c4Cl)ncn3)cc2)CC1 [BGJ398]
How it was run: as §1

[3] = compound: CCN1CCN(c2ccc(Nc3cc(N(C)C(=O)Nc4c(Cl)c(OC)cc(OC)c4Cl)ncn3)cc2)CC1 [BGJ398] + CC1(C)CCC(c2ccc(Cl)cc2)=C(CN2CCN(c3ccc(C(=O)NS(=O)(=O)c4ccc(N[C@H](CCN5CCOCC5)CSc5ccccc5)c(S(=O)(=O)C(F)(F)F)c4)cc3)CC2)C1 [Navitoclax] (partner 0.5 µM)
How it was run: (§2)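 Cells from lung cancer lines were seeded into 1536-well plates and, one day later, dosed by pin tool. Treatments were either a single drug or a fixed dose of an anchor drug with five library-drug doses (not always all listed) in √10 steps. After 5 days, nuclei were stained in a one-step fixation (final 0.05% Triton X-100, 1% formaldehyde, 1 ug/ml Hoechst) and counted on 4× images, and relative viability is the treated-to-vehicle nuclei ratio, as the median of duplicate plates.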

[4] = compound: C1=CC2=NC=CN=C2C=C1/C=C/3\C(=O)NC(=O)S3 + CC(=O)Nc1cccc(-n2c(=O)n(C3CC3)c(=O)c3c(Nc4ccc(I)cc4F)n(C)c(=O)c(C)c32)c1 [Trametinib] (partner 0.02 µM)
How it was run: as §2

Cell Line	relative viability ([1]; 0.02 µM)	relative viability ([1]; 0.06325 µM)	relative viability ([1]; 0.2 µM)	relative viability ([1]; 0.6325 µM)	relative viability ([1]; 2 µM)	relative viability ([2]; 0.01 µM)	relative viability ([2]; 0.03162 µM)	relative viability ([2]; 0.1 µM)	relative viability ([2]; 0.3162 µM)	relative viability ([2]; 1 µM)	relative viability ([3]; first compound 0.01 µM)	relative viability ([3]; first compound 0.03162 µM)	relative viability ([3]; first compound 0.1 µM)	relative viability ([3]; first compound 0.3162 µM)	relative viability ([3]; first compound 1 µM)	relative viability ([4]; first compound 0.02 µM)	relative viability ([4]; first compound 0.06325 µM)	relative viability ([4]; first compound 0.2 µM)	relative viability ([4]; first compound 0.6325 µM)	relative viability ([4]; first compound 2 µM)
NCI-H1437	1.01	0.983	1.04	0.964	0.703	0.978	1.01	1	1	0.832	1.1	1.12	1.07	1.08	1.06	0.475	0.448	0.534	0.45	0.329
NCI-H460	0.933	0.964	0.999	0.939	0.942	1.02	1.04	1.11	0.984	0.988	1.01	1.11	1.4	1.12	1.33	0.0917	0.0921	0.223	0.11	0.0876
NCI-H1666	0.944	0.962	0.966	0.971	0.893	1	1.03	0.966	0.98	0.8	0.949	1.01	0.91	0.967	0.842	0.826	0.813	0.87	0.958	0.696
NCI-H1651	0.959	0.876	0.994	0.877	0.884	0.921	0.96	1.08	0.936	0.87	0.988	1.18	0.978	0.961	0.991	0.821	0.642	0.86	0.849	0.725
NCI-H1755	0.887	0.949	0.986	0.925	0.93	0.933	1.06	1.05	0.963	1.01	0.984	1.04	0.986	0.968	1.07	0.719	0.642	0.823	0.772	0.764
HARA	0.84	0.992	0.945	0.778	0.955	1.02	0.788	0.821	0.719	0.602	1.11	1.14	1.19	1.13	1.05	0.477	0.632	0.507	0.788	0.672
NCI-H596	1.06	0.938	1.1	0.834	0.867	1.13	0.931	0.978	0.92	0.8	0.96	0.645	0.698	0.73	0.614	0.764	0.771	0.794	0.887	0.722
NCI-H23	1.01	1.21	1.1	0.876	0.753	0.994	0.974	0.966	0.937	0.979	0.874	0.765	0.848	0.896	0.865	0.346	0.489	0.361	0.394	0.223
